From patent US20230338453A1, “PROCESS FOR PRODUCING A HYDROLYSATE OF SCUTELLARIA ROOT, WHICH IS ENRICHED AND STANDARDIZED WITH FLAVONOIDS OF INTEREST, THE HYDROLYSATE OBTAINED BY SUCH A PROCESS, AND COSMETIC AND DERMOCOSMETIC APPLICATIONS OF SUCH A HYDROLYSATE” (EXSYMOL, priority 2020, published 2023) come the findings set out here.

The subject of the assay is pro-inflammatory cytokine IL-6. In words: Test 1: IL-6 secretion by stress-induced senescent fibroblasts (ELISA). The format is cell-based, human. As for the experimental part: Experimentally, the test was carried out on primary human fibroblasts (abbreviation “NHDF” for “Normal Human Dermal Fibroblasts”) isolated from breast plastic surgery from a patient. These NHDFs were cultured in a complete “DMEM” culture medium (with 4.5 g/l of glucose and 10% of fetal calf serum (FCS)), then maintained in an atmosphere at 37° C. and 10% of CO2. On D-2, the fibroblasts were seeded in 6-well plates at a rate of 1.10^4 cells/cm^2. On D0, the fibroblasts were subjected to stress inducing premature senescence ([…] hydrogen peroxide, H2O2, for 2 hours), then incubated at 37° C. and 10% CO2 for 72 hours in order to leave senescence settle. On D+3, these senescent fibroblasts induced by such stress (abbreviation “SIPS-fibro” for “Stress-Induced Premature Senescent-fibroblasts”) were incubated for 24 hours in the presence of different weight ratios of wogonin to baicalein (abbreviation “W/B”) of synthetic origin. On D+4, the culture supernatants were harvested in order to perform an ELISA assay for the pro-inflammatory cytokine IL-6 (“R&DSystem kit, ref. D6050”). The results obtained were then normalized with respect to the quantity of cells per condition and subjected to statistical analysis in triplicate. The results are collated in Table 1 below, in particular expressed as % inhibition of IL-6 secretion relative to the senescent control.
(In an ELISA, binding on a coated surface is turned into a signal by an enzyme label.)

As for `COc1c(O)cc(O)c2c(=O)cc(-c3ccccc3)oc12` [wogonine, 5,7-dihydroxy-8-methoxyflavone], for the setting “relative to the senescent control, senescent NHDF, 24 hours”, the “% inhibition of IL-6 secretion” value is recorded as −10%. Besides, under “senescent NHDF (H2O2 stress), incubated 24 hours with compound, ELISA”, the “Amount of IL-6 secreted” value worked out at 9.1 ng/10^6 cells.
